From US8658655B2, “Inhibition of activated cdc42-associated kinase 1” (Fox Chase Cancer Center, priority 2011, dated 2014)
“Also recorded” adds a separate entry of the source.

Key:
[1] = tested on: Ack1 autophosphorylation (Tyr284); assay: Ack1 autophosphorylation in HEK293 cells (Western blot phospho-Ack1); assay type: cell-based; settings: HEK293 cells expressing Ack1
Excerpt: (§1) Thus, this Example proposed derivatives of compound 1 that inhibit Ack1 in the cellular context while retaining its target specificity.

Ack1 [2] = molecular target: T1, Ack1 (Homo sapiens, UniProt Q07912); assay: Ack1 dose-response radiometric peptide kinase assay; assay type: biochemical
Method: 40 ng of recombinant Ack1 was incubated with saturating quantities of peptide substrate ([…] (SEQ ID NO:1) and in the presence of a compound in Ack1 kinase buffer (20 mM Tris pH 7.4, 10 mM MgCl2, 0.1 mM NaVO4, 0.5 mM dithiothreitol). [^32P]-γ-ATP was added in a total concentration of 10 μM ATP to initiate the reaction. Following 30 minute incubation at 30° C., phosphorylated peptide substrate was captured by spotting the reaction on P81 cationic filter paper and unincorporated [^32P]-γ-ATP was removed by washing in a solution of phosphoric acid. Phosphorylated peptide was then quantified by autoradiography or by Phosphorlmager analysis or by scintillation counting.
as §1
Target sequence in this assay (Q07912 whole entry): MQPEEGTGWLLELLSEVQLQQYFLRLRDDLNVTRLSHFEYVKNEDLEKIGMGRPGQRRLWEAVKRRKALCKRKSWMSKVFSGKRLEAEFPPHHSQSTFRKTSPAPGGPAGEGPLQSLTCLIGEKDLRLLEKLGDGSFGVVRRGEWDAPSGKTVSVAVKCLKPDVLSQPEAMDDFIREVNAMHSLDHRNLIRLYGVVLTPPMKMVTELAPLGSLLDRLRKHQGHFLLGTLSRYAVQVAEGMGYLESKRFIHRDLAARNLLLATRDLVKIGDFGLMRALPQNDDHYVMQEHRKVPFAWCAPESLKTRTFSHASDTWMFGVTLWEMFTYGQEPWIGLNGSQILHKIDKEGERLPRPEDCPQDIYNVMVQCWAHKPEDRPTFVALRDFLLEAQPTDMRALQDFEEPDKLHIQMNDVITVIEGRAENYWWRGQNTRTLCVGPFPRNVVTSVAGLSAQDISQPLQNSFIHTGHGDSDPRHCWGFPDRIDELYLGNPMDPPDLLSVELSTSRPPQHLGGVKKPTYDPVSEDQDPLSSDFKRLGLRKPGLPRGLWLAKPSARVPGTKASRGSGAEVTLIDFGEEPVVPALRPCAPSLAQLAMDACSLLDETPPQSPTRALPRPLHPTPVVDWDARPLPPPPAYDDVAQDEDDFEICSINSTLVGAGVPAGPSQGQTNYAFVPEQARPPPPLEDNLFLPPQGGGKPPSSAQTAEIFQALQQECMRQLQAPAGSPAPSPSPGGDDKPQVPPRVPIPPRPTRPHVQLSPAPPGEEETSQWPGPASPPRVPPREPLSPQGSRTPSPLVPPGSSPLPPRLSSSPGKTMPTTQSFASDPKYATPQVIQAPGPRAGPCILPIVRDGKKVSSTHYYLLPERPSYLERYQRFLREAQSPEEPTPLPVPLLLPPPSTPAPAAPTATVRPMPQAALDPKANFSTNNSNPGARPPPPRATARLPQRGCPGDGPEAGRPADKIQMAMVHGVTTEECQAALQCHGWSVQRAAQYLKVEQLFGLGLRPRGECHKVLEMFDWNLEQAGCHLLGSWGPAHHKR

Ack1 [3] = molecular target: T1, Ack1; assay: Kinase panel screen at 500 nM: Ack1; assay type: biochemical; design: only the kinase domain of Ack1 and a limited additional region C-terminal (amino acids 110-476); settings: 500 nM compound, 10 μM ATP; for inhibition at 0.5 µM: duplicate, read-out: inhibition of Ack1 catalytic activity
Target sequence in this assay (Q07912 110-476): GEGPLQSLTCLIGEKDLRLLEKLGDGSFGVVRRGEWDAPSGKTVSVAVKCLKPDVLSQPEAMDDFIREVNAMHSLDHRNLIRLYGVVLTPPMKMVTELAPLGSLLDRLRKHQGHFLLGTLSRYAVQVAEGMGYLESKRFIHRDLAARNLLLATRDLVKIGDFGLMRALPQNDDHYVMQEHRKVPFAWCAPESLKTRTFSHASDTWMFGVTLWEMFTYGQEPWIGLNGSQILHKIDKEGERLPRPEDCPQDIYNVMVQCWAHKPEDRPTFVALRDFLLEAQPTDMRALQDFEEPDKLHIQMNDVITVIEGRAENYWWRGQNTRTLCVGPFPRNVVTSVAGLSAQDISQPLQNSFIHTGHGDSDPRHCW
Method: Each inhibitor was tested in duplicate at 500 nM against each kinase using radiolabeled ATP (10 μM total ATP) and a peptide or protein substrate.

Aurora [4] = settings: Heron et al. 2006; cited from earlier work
Aurora [5] = settings: Heron et al. 2006; cited from earlier work; remark: listed apart in the source
[6] = molecular target: non-receptor tyrosine kinase BRK (Homo sapiens, UniProt Q13882); assay: Kinase panel screen at 500 nM: BRK; assay type: biochemical; settings: 500 nM compound, 10 μM ATP
Excerpt: (§2) Disparate replicates were eliminated from the analysis.

[7] = tested on: panel of 300 protein kinases; assay: Kinase selectivity across panel of 300 kinases (Gini coefficient); assay type: biochemical, human; settings: 500 nM
Method: as §2
The data were analyzed for compounds that inhibit Ack1. […] Inhibitor selectivity was quantitatively assessed using the Gini coefficient (Piotr P et al. (2007) J. Med. Chem., 50:5773-9; and, Lynette A et al. (2009) J. Chem. Biol. 2:131-51).

Aurora B = Aurora B (Homo sapiens, UniProt Q96GD4); assay: Kinase panel screen at 500 nM: Aurora B; assay type: biochemical; settings: 500 nM compound, 10 μM ATP
Excerpt: as §2

JAK1/2 = assay: Kinase panel screen at 500 nM: JAK1/2; assay type: biochemical, human; settings: 500 nM compound, 10 μM ATP
Excerpt: (§3) To directly test the kinase selectivity of a large number of established kinase inhibitors, high throughput kinase assays were employed against a panel of ^˜300 recombinant human protein kinases. An economical method based on conventional filter-binding assays was used at a nanoliter scale using radiolabeled ATP that directly measures kinase catalytic activity toward a polypeptide and/or protein substrate. […] The library of inhibitors comprises 160 pure compounds known to inhibit kinases representing all major protein kinase families, as well as a limited number of compounds that were not developed to target protein kinases (FIG. 1A).
(§4) The kinase panel tested represents all major human protein kinase. For simplicity, all compounds were tested at a concentration of 0.5 μM in the presence of 10 μM ATP.
(§5) Each kinase-inhibitor pair was tested in duplicate and results were expressed as percent remaining kinase activity compared to solvent (DMSO) control reactions. Disparate replicates were eliminated from the analysis.
(§6) As described above, a large-scale parallel screening of a collection of 160 known kinase inhibitors was conducted against a panel of 294-300 recombinant human protein kinases. Goals included the identification of novel inhibitor scaffolds for new kinase targets and the revelation of the target specificities of this panel of research compounds. […]

FLT3 = molecular target: T2, FLT3 (Homo sapiens, UniProt P36888); assay: Kinase panel screen at 500 nM: FLT3; assay type: biochemical; settings: 500 nM compound, 10 μM ATP
T2 sequence (P36888 27-993): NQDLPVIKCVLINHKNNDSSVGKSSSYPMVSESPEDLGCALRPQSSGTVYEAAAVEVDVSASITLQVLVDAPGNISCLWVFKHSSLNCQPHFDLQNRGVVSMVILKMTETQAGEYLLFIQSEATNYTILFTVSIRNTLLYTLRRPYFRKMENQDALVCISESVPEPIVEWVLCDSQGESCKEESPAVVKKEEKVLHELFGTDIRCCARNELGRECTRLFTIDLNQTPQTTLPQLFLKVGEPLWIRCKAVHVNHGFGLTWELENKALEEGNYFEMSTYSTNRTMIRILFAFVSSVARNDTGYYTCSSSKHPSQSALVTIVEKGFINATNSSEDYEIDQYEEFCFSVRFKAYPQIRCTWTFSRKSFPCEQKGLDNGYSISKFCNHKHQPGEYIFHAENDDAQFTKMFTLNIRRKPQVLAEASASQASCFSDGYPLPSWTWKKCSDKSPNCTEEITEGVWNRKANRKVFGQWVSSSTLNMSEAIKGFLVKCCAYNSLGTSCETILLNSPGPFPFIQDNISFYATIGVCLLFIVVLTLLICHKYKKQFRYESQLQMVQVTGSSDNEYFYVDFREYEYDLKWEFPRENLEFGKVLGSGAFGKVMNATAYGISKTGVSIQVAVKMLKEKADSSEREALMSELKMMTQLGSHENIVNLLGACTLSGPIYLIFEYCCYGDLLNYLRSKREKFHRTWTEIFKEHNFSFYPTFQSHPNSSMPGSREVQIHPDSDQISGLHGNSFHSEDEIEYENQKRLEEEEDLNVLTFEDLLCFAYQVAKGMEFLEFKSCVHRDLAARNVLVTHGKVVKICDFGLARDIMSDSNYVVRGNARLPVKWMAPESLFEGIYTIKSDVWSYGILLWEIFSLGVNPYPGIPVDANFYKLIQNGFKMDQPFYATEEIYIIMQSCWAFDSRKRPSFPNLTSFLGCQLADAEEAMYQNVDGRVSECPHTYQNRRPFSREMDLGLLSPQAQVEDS
Excerpt: as §2

Tyk2 = Tyk2 (Homo sapiens, UniProt P29597); assay: Kinase panel screen at 500 nM: Tyk2; assay type: biochemical; settings: 500 nM compound, 10 μM ATP
Excerpt: as §2

IKK-2 = molecular target: T3, IKK-2 (Homo sapiens, UniProt O14920); assay: Kinase panel screen at 500 nM: IKK-2; assay type: biochemical; settings: 500 nM compound, 10 μM ATP
T3 sequence (O14920 1-756): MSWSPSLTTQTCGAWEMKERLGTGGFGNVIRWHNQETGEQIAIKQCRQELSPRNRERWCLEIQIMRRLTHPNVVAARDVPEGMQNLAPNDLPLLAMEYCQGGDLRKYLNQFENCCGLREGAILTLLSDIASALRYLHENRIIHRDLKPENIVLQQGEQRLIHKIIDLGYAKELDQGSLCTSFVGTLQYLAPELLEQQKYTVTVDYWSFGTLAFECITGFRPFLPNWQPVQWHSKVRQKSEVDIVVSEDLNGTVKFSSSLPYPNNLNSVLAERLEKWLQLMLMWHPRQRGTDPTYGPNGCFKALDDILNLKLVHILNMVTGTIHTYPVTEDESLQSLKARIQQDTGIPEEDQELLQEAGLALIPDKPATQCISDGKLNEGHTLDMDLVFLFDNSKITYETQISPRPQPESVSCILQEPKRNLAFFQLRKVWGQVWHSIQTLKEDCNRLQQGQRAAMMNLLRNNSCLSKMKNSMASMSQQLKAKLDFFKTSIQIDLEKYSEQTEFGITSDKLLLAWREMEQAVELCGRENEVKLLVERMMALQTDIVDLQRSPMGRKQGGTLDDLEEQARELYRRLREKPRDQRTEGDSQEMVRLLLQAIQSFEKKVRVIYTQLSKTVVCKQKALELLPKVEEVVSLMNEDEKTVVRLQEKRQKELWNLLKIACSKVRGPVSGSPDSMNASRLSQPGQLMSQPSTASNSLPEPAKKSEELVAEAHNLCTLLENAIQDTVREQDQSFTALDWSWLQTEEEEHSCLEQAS
Excerpt: as §3, §4, §5, §6

RET = RET (Homo sapiens, UniProt P07949); assay: Kinase panel screen at 500 nM: RET; assay type: biochemical; settings: 500 nM compound, 10 μM ATP
Excerpt: as §2

Tyk2, sequence (P29597 whole entry): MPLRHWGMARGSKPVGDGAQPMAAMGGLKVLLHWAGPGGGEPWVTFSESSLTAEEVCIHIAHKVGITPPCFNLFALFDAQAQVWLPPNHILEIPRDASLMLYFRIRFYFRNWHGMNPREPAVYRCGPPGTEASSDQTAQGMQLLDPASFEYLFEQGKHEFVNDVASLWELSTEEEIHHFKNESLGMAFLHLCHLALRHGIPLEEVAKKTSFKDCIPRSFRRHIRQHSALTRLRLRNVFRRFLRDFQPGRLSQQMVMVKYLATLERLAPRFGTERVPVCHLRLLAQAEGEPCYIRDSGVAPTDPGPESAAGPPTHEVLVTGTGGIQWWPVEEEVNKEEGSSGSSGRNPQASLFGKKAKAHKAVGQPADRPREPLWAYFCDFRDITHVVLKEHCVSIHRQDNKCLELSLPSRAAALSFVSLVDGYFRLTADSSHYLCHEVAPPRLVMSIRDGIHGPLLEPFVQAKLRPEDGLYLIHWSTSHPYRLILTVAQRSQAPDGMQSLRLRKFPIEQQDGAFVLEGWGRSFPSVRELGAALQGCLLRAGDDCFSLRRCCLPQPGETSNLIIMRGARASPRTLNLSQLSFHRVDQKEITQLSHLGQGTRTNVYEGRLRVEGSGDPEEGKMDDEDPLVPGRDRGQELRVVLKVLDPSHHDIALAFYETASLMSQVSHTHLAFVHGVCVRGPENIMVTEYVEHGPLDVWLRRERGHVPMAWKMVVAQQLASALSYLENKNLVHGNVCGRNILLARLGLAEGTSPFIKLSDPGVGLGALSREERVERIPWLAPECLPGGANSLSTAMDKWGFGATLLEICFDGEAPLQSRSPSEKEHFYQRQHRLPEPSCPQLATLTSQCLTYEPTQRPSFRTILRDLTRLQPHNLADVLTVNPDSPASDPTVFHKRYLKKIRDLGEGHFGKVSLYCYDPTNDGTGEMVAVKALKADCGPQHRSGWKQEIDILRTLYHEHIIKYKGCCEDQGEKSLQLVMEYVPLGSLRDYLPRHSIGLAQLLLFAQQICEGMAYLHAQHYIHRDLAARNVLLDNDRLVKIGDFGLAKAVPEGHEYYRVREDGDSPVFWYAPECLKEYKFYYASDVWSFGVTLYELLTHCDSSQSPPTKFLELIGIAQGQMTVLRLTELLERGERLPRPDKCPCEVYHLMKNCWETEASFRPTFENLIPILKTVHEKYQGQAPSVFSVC
non-receptor tyrosine kinase BRK, sequence (Q13882 whole entry): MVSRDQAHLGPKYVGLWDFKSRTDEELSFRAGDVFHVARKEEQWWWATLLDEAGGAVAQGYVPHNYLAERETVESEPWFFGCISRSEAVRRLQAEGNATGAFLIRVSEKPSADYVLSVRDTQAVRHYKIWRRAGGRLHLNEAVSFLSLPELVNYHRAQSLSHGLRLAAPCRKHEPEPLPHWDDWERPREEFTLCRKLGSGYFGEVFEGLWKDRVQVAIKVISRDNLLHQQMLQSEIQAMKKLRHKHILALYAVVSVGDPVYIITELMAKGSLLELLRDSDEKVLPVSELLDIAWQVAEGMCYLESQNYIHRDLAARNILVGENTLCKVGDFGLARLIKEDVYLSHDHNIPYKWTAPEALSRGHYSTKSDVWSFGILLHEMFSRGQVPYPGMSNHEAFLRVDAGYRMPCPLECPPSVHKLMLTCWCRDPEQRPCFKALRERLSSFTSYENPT
Aurora B, sequence (Q96GD4 whole entry): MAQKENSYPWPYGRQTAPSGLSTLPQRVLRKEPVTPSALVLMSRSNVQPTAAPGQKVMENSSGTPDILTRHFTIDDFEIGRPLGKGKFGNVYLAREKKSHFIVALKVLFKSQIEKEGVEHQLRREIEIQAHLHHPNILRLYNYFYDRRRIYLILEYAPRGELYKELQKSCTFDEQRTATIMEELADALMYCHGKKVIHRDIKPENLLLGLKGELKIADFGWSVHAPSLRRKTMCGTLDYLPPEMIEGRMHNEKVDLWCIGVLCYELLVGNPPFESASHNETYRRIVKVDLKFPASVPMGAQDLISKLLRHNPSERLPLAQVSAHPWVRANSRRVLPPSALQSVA
RET, sequence (P07949 29-1114): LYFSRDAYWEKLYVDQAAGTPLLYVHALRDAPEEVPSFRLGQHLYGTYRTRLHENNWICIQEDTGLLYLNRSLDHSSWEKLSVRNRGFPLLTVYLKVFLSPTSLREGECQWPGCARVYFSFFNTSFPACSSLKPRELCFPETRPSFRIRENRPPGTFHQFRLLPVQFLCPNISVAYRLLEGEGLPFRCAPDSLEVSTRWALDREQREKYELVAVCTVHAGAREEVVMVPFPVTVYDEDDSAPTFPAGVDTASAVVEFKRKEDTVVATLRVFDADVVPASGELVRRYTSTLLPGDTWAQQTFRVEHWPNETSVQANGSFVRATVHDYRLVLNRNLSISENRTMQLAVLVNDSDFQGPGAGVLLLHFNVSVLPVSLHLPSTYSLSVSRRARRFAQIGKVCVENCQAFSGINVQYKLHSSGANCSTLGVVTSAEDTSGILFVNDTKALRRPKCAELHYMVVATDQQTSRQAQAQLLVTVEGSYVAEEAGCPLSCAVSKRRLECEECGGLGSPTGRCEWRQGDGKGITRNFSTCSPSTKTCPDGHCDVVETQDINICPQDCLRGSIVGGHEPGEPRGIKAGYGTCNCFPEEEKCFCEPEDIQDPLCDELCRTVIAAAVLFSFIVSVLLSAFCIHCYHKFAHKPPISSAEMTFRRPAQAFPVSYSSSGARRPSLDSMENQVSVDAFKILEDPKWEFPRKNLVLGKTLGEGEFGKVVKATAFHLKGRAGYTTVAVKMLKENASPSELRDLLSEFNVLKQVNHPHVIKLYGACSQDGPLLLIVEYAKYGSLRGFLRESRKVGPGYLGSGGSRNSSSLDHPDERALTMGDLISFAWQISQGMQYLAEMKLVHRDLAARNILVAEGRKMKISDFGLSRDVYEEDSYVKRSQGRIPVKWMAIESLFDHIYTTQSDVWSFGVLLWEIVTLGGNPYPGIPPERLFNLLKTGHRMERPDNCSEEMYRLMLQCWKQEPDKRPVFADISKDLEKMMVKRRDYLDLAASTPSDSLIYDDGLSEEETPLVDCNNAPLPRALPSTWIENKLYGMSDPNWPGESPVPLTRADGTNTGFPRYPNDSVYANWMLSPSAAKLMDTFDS

For COc1cc2c(Nc3ccc(NC(=O)c4ccccc4)cc3)ncnc2cc1OCCCN1CCOCC1 [Compound 1.1], the “inhibition of Ack1 autophosphorylation in cells” value [1] was “potently inhibited Ack1 autophosphorylation in cells; also recorded: inhibits Ack1 in cells” and the “in vitro Ack1 activity compared to compound 1” value (Ack1 [2]; data not shown) was “comparable in vitro activity to compound 1”.
For COc1cc2ncnc(Nc3ccc(NC(=O)c4ccccc4)cc3)c2cc1OC [Compound 1], the inhibition at 0.5 µM (Ack1 [3]) is listed as 95%, the “in vitro activity against Aurora” value (Aurora [4]) is listed as “good in vitro activity” and the “cellular efficacy against Aurora” value (Aurora [5]) is listed as “poor cellular efficacy”. For the same molecule, the inhibition at 0.5 µM [6] was > 50%, the “kinase selectivity for Ack1 over other kinases” value [7] was “unusually selective” and the inhibition at 0.5 µM (Aurora B) was 75%. For the same molecule, the “inhibition of Ack1 autophosphorylation in cells” value [1] was “did not reduce Ack1 autophosphorylation” and the IC50 (Ack1 [2]; dose-response, 10 μM ATP, read-out: IC50 against Ack1 in vitro) was 5 nM.
In the case of NC(=O)Nc1sc(-c2ccc(F)cc2)cc1C(N)=O [Compound 3], the inhibition at 0.5 µM (Ack1 [3]) is reported as 94%, the “inhibition of catalytic activity of JAK1/2” value (JAK1/2) is reported as “partial inhibition” and the “inhibition of catalytic activity of FLT3” value (FLT3) is reported as “partial inhibition”. The “inhibition of catalytic activity of Tyk2” value (Tyk2) was “partial inhibition”, the inhibition at 0.5 µM (IKK-2) was 91% and the “inhibition of catalytic activity of RET” value (RET) was “partial inhibition”.
With CN[C@@H]1C[C@H]2O[C@@](C)([C@@H]1OC)n1c3ccccc3c3c4c(c5c6ccccc6n2c5c31)C(=O)NC4 [staurosporine, reference compound] the “inhibition of Ack1 in the screen” value (Ack1 [3]) was “inhibited Ack1 in addition to many other kinases”.
